Laboratory results published in US20240261312A1 (priority 2021, published 2024).
Several values for one entry are separate records, joined by “and”; a condition that tells them apart may be missing. Equal entries are not always repeated. Where two headings read alike, the source gives them in different places.

Key:
bovine coronavirus (BCV) = type: cell-based; settings: HRT cells, therapeutic
[1] = tested on: bovine viral diarrhea virus (BVDV); type: cell-based; settings: MDBK cells, 48-h time point
[2] = tested on: bovine viral diarrhea virus (BVDV); type: cell-based; settings: 30 min preincubation, 0.1 to 1.0 ug/ml oleandrin
rhinovirus = assay: Antiviral activity against rhinovirus; type: cell-based; settings: concentrations and assays employed herein
[3] = tested on: Human adenovirus (HAdv-C5); assay: Antiviral activity against human adenovirus; type: cell-based
dengue fever virus = assay: Antiviral activity against dengue fever virus; type: cell-based
[4] = tested on: Omsk hemorrhagic fever virus; type: cell-based
[5] = tested on: Kyasanur forest disease virus; type: cell-based
[6] = tested on: Alkhuma hemorrhagic fever virus; type: cell-based
HRT cells = settings: concentrations of up to 1.0 microg/mL
MDBK cells = settings: concentrations of up to 1.0 microg/mL
MARC 145 cells = settings: concentrations of up to 1.0 microg/mL
BT cells = settings: concentrations of up to 1.0 microg/mL
cells = settings: up to concentrations of 1 microg/mL
murine coronavirus = settings: reported; cited from earlier work
[7] = cited from earlier work
[8] = cited from earlier work; remark: listed apart in the source
[9] = in horses; cited from earlier work
[10] = in adult dogs; cited from earlier work
[11] = in turkeys; cited from earlier work
[12] = in cats; cited from earlier work

Q: Which “concentration range over which efficacious” value (bovine coronavirus (BCV)) does the source give for `CO[C@H]1C[C@H](O[C@H]2CC[C@@]3(C)[C@H](CC[C@@H]4[C@@H]3CC[C@]3(C)[C@@H](C5=CC(=O)OC5)[C@@H](OC(C)=O)C[C@]43O)C2)O[C@@H](C)[C@@H]1O` [oleandrin] here?
A: ≥ 0.01 µg/mL

Q: And the “reduction of viral infectivity relative to control” value [1]?
A: 98-100%

Q: What about the “inhibition of infectivity of progeny” value [2] of the same compound?
A: 85-93%

Q: What about the “antiviral activity (inhibition of viral replication)” value (rhinovirus) of the same compound?
A: inactive

Q: And the antiviral activity [3]?
A: inactive

Q: What about the antiviral activity (dengue fever virus) of the same compound?
A: inactive

Q: And the antiviral activity [4]?
A: inactive

Q: What about the antiviral activity [5] of the same compound?
A: inactive

Q: What about the antiviral activity [6] of the same compound?
A: inactive

Q: What about the “toxicity to HRT cells” value (HRT cells) of the same compound?
A: not toxic

Q: And the “toxicity to MDBK cells” value (MDBK cells)?
A: not toxic

Q: What about the “toxicity to MARC 145 cells” value (MARC 145 cells) of the same compound?
A: not toxic

Q: What about the “toxicity to BT cells” value (BT cells) of the same compound?
A: not toxic

Q: What about the “toxicity by release of lactate dehydrogenase” value (cells) of the same compound?
A: no additional toxicity over control vehicle

Q: And the antiviral activity (murine coronavirus)?
A: inactive

Q: For `C[C@H]1O[C@@H](O[C@H]2[C@@H](O)C[C@H](O[C@H]3[C@@H](O)C[C@H](O[C@H]4CC[C@@]5(C)[C@H](CC[C@@H]6[C@@H]5C[C@@H](O)[C@]5(C)[C@@H](C7=CC(=O)OC7)CC[C@]65O)C4)O[C@@H]3C)O[C@@H]2C)C[C@H](O)[C@@H]1O` [digoxin], which half-life ([7]; in calves) is on record?
A: 5 to 7 h

Q: What about the half-life ([7]; in cattle) of the same compound?
A: 7 to 9 h

Q: What about the half-life ([8]; in ewes and lambs) of the same compound?
A: 13 to 15 h

Q: And the half-life ([8]; in sheep)?
A: 7 to 8 h

Q: And the half-life [9]?
A: 16 to 18 h and 10 to 23 h

Q: What about the half-life [10] of the same compound?
A: 4 to 6 h

Q: And the half-life [11]?
A: 10 to 12 h

Q: What about the half-life [12] of the same compound?
A: 9 to 12 h
